Test results reported in PMC6112376, “Comprehensive Analyses and Prioritization of Tox21 10K Chemicals Affecting Mitochondrial Function by in-Depth Mechanistic Studies” (Environmental Health Perspectives, 2018).
Counter-ions that a name gives are not always drawn. Like-named read-outs stand apart in the source and are kept apart here.

Tests used:
HepG2 cells [1] = test: cells; details: Homo sapiens; for IC50: HepG2, read-out: MMP assays IC50 (µM) HepG2; for Emax: HepG2, read-out: MMP assays efficacy (%) HepG2
rat primary hepatocytes [2] = test: MMP assay in rat primary hepatocytes; details: for IC50: Rattus norvegicus, Hepatocyte, read-out: MMP assays IC50 (µM) Rat Hepatocytes
rat primary hepatocytes [3] = system: rat primary hepatocytes
HepG2 cells [4] = details: cited from earlier work
[5] = read-out: MMP assays IC50 (µM), qHTS-HepG2
[6] = read-out: MMP assays IC50 (µM) qHTS-HepG2

SMILES | IC50 (HepG2 cells [1]) | Emax (HepG2 cells [1]) | IC50 (rat primary hepatocytes [2]) | MMP assays efficacy (%) Rat Hepatocytes (rat primary hepatocytes [3]) | MMP assays efficacy (%) qHTS-HepG2 (HepG2 cells [4]) | IC50 (HepG2 cells [4]; [5]) | IC50 (HepG2 cells [4]; [6]) | MMP assays IC50 (µM) Rat Hepatocytes (rat primary hepatocytes [2])
Cc1cc2nc3c(=O)[nH]c(=O)nc-3n(C[C@H](O)[C@H](O)[C@H](O)CO)c2cc1C [Riboflavin] | 11.2 µM | 86% | 31.3 ± 8.72 µM | -97±58% | -113±7% | 7.02 ± 1.78 µM | – | –
O=[N+]([O-])c1ccc2ccc3cccc4ccc1c2c34 [Compound 1-Nitropyrene] | 6.31 µM | 68% | 16.9 ± 4.77 µM | -60±24% | -99±6% | – | 2.01 ± 2.06 µM | –
C[C@]12CC[C@H]3C(=CCc4cc(O)ccc43)[C@@H]1CCC2=O [Equilin] | 31.6 µM | 126% | 39.1 ± 15.5 µM | -47±10% | -97±4% | – | 24.3 ± 4.6 µM | –
CC1CCCCC1NC(=O)Nc1ccccc1 (stereo not drawn) [Siduron] | 35.5 µM | 89% | 43.9 ± 17.4 µM | -48±7% | -73±13% | 41.6 ± 21.1 µM | – | –
O=P(Oc1ccccc1)(Oc1ccccc1)Oc1ccccc1 [Triphenyl phosphate] | 1.26 µM | 48% | 28.9 ± 9.26 µM | -56±38% | -98±14% | 1.38 ± 1.48 µM | – | –
CC(=O)[C@]1(O)Cc2c(O)c3c(c(O)c2[C@@H](O[C@H]2C[C@H](N)[C@H](O)[C@H](C)O2)C1)C(=O)c1c(O)cccc1C3=O [Carminomycin] | 21.8 µM | 68% | – | inactive | -91±17% | – | 1.25 ± 0.73 µM | inactive
CC(=O)C(Cl)(Cl)Cl [1,1,1-Trichloropropanone] | 3.16 µM | 123% | 23.7 ± 29.6 µM | -42±17% | -93±13% | – | 1.22 ± 0.56 µM | –
N=C(N)NN=C1C=CC(=NNC(N)=S)C=C1 [Ambazone] | 3.98 µM | 61% | 1.98 ± 2.22 µM | -52±11% | -98±7% | – | 5.6 ± 3.23 µM | –
O=[N+]([O-])c1ccc(O/N=C/c2cc(Br)c(O)c(Br)c2)c([N+](=O)[O-])c1 [Bromofenoxim] | 3.98 µM | 100% | 2.18 ± 0.86 µM | -114±9% | -108±7% | – | 1.08 ± 0.25 µM | –
Cc1ccc2c(c1N)C(=O)c1ccccc1C2=O [Compound 1-Amino-2-methylanthraquinone] | 2.51 µM | 92% | 5.28 ± 3.3 µM | -85±28% | -82±1% | – | 0.64 ± 0.08 µM | –
CO[C@H]1[C@@H](O)C[C@H](O[C@H]2[C@@H](O)C[C@H](O[C@H]3[C@@H](O)C[C@H](O[C@H]4CC[C@@]5(C)[C@H](CC[C@@H]6[C@@H]5C[C@@H](O)[C@]5(C)[C@@H](C7=CC(=O)OC7)CC[C@]65O)C4)O[C@@H]3C)O[C@@H]2C)O[C@@H]1C [Methyldigoxin] | 0.24 µM | 99% | – | inactive | -71±5% | 0.73 ± 0.09 µM | – | inactive
O=[N+]([O-])c1ccc(Oc2ccc(C(F)(F)F)cc2[N+](=O)[O-])cc1 [Fluorodifen] | 28.2 µM | 94% | 24.1 ± 15 µM | -114±10% | -89±20% | 27.3 ± 25.1 µM | – | –
ClC1=C(Cl)C2(Cl)C3C4C=CC(C4)C3C1(Cl)C2(Cl)Cl (stereo not drawn) [Aldrin] | 39.8 µM | 106% | – | inactive | -86±11% | – | 31.2 ± 7.21 µM | inactive
O=S1(=O)OCC2C(CO1)C1(Cl)C(Cl)=C(Cl)C2(Cl)C1(Cl)Cl (stereo not drawn) [Endosulfan sulfate] | 17.8 µM | 103% | 25.8 ± 10.1 µM | -80+6% | -123±10% | – | 16 ± 2.05 µM | –
Cc1cc(C(C)(C)c2ccc(O)c(C)c2)ccc1O [3,3'-Dimethylbisphenol A] | 11.2 µM | 110% | 34.4 ± 4.73 µM | -56±26% | -118±22% | – | 8.88 ± 3.37 µM | –
Oc1c(Cl)cc(Cl)cc1Sc1cc(Cl)cc(Cl)c1O [Sodium bithionolate] | 0.89 µM | 116% | – | inactive | -123±11% | 0.91 ± 0.78 µM | – | inactive
IC(I)=C(I)I [Tetraiodoethene] | 6.31 µM | 103% | 22.6 ± 14.4 µM | -115±28% | -105±22% | 5.45 ± 1.27 µM | – | –
Cc1c(Cl)cccc1Nc1ccccc1C(=O)O [Tolfenamic acid] | 17.3 µM | 98% | 14.8 ± 4.38 µM | -105±5% | -115±7% | 11.9 µM | – | –
CCCSc1ccc2nc(NC(=O)OC)[nH]c2c1 [Albendazole] | 19.4 µM | 107% | 15.5 ± 21.7 µM | -85±78% | -78±15% | – | 9.35 ± 1.83 µM | –
CC(=O)c1cc2c(cc1C)C(C)(C)C(C)CC2(C)C (stereo not drawn) | 28.2 µM | 73% | – | inactive | -74±22% | – | 30.6 ± 18.9 µM | inactive
COC(=O)Nc1nc2ccc(C(=O)c3cccs3)cc2[nH]1 [Nocodazole] | 2.18 µM | 87% | – | inactive | -62±6% | 3.53 ± 1.63 µM | – | inactive
C[C@]12O[C@H](C[C@]1(O)CO)n1c3ccccc3c3c4c(c5c6ccccc6n2c5c31)CNC4=O [lestaurtinib] | 5.62 µM | 100% | 12.8 ± 2.67 µM | -92±26% | -84±9% | 4.8 ± 0.97 µM | – | –
O=C(Nc1ccccc1)c1ccccc1O [Salicylanilide] | 3.98 µM | 101% | 29.1 ± 12.2 µM | -91±5% | -125±11% | 3.71 ± 1.27 µM | – | –
C[C@H]1CCCC(=O)CCC/C=C/c2cc(O)cc(O)c2C(=O)O1 [Zearalenone] | 5.84 µM | 115% | 22 ± 1.79 µM | -68±24% | -110±22% | 4.67 ± 1.77 µM | – | –
Brc1ccc(Oc2cc(Br)c(Br)cc2Br)c(Br)c1 [2,2',4,4',5-Pentabromodiphenyl ether] | 4.47 µM | 88% | 9.11 ± 4.93 µM | -43±30% | -109±22% | – | 8 ± 3.19 µM | –
O=C(O)Cc1sc(-c2ccccc2)nc1-c1ccc(Cl)cc1 [Fentiazac] | 19.4 µM | 57% | 9.49 ± 7.98 µM | -88±22% | -91±18% | – | 27.4 ± 2.92 µM | –
O=c1c(O)c(-c2ccc(O)cc2)oc2cc(O)cc(O)c12 [Kaempferol] | 6.76 µM | 96% | 24.1 ± 8.76 µM | -84±55% | -100±8% | 2.56 ± 3.04 µM | – | –
